Experimental data taken from patent US11293023B2, “Tunable endogenous protein degradation” (Dana-Farber Cancer Institute, Inc., priority 2015, dated 2022).

Columns and labels:
[1] = test system: KRAS signaling (pMEK and pAKT); test: Immunoblot of downstream surrogates of KRAS signaling in NIH3T3 cells expressing dTAG-KRAS; assay type: cell-based
Experimental: FIG. 11 is an immunoblot of NIH3T3 cells expressing KRASG12V allele fused to FKBP* in the N-terminus or C-terminus. Cells were treated with 500 nM dFKBP7 for the indicated time. Cells were harvested and immunoblotted to measure degradation of FKBP*-KRASG12V and downstream surrogates of KRAS signaling (e.g. pMEK and pAKT).
(§1) FIG. 12 is an immunoblot of NIH3T3 cells expressing FKBP* fused to the N-terminus of KRASG12V treated with 1 uM of the indicated dFKBP heterobifunctional compounds for 24 hours. Cells were harvested and immunoblotted to measure degradation of FKBP*-KRASG12V and downstream surrogates of KRAS signaling (e.g. pMEK and pAKT).
as §1, with “FIG. 13” for “FIG. 12”, “with” for “with 1 uM of”, “indicated concentrations of dFKBP13” for “indicated dFKBP heterobifunctional compounds”
FIG. 14 is an immunoblot of NIH3T3 cells expressing FKBP* fused to the N-terminus of KRASG12V treated with 1 uM dFKBP13 for the indicated time. Cells were harvested and immunoblotted to measure degradation of FKBP*-KRASG12V and downstream surrogates of KRAS signaling (e.g. pMEK and pAKT).
Cells were treated with 500 nM dFKBP7 for the indicated time. Cells were harvested and immunoblotted to measure degradation of FKBP*-KRAS and downstream surrogates of KRAS signaling (e.g. pMEK and pAKT).
In an effort to identify the best performing dFKBP molecule, dTAG-KRAS degradation was profiled across a series of dFKBP molecules. Western blotting of NIH3T3 cells expressing dTAG-KRASG12V were treated with 1 μM of the indicated dFKBP heterobifunctional compounds for 24 hours. Cells were harvested and immunoblotted to measure degradation of FKBP*-KRAS and downstream surrogates of KRAS signaling (e.g. pMEK and pAKT).
Western blotting of NIH3T3 cells expressing FKBP* fused to the N-terminus of KRAS treated with the indicated concentrations of dFKBP13 for 24 hours. Cells were harvested and immunoblotted to measure degradation of FKBP*-KRAS and downstream surrogates of KRAS signaling (e.g. pMEK and pAKT).
To evaluate the kinetic control of targeted degradation of dTAG-KRAS, dFKBP13 was administered by increased duration. Western blotting of NIH3T3 cells expressing FKBP* fused to the N-terminus of KRAS treated with 1 μM dFKBP13 for the indicated time. Cells were harvested and immunoblotted to measure degradation of FKBP*-KRAS and downstream surrogates of KRAS signaling (e.g. pMEK and pAKT).
(§2) The dFKBP13 heterobifunctional compound potently degrades dTAG-KRAS mutant alleles. NIH3T3 cells were engineered to express KRAS alleles either WT or mutant forms of amino acid glycine 12 (G12C, G12D, and G12V). Western blotting of NIH3T3 cells expressing dTAG fused to the N-terminus of KRAS alleles were treated with 1 uM of dFKBP13 for 24 hours. Cells were harvested and immunoblotted to measure degradation of dTAG-KRAS and downstream surrogates of KRAS signaling (e.g. pMEK and pAKT).
as §2, with “express” for “express KRAS alleles”, “KRAS alleles (G13D, Q61L,” for “forms of amino acid glycine 12 (G12C, G12D,”, “Q61R).” for “G12V).”

[2] = target: T1, FKBP* (FKBP12 F36V), HA-tagged (Homo sapiens, UniProt P62942, F37V); test: Immunoblot of FKBP* degradation in 293FT cells (CRBN-WT or CRBN−/−); assay type: cell-based; settings: for degradation of FKBP*: 100 nM
T1 construct: expressed in transfected cells; host or cells: 293FT cells (CRBN-WT or CRBN-/-)
Experimental: 293FT cells (CRBN-WT or CRBN−/−) expressing either HA-tagged FKBP12WT or FKBP* were treated with indicated concentrations of dFKBP7 for 4 hours.
Isogenic 293FT cells (CRBN-WT or CRBN−/−) expressing either FKBP12WT or FKBP* were treated with 100 nM of either dFKBP7 or dFKBP13 for 4 hours.
Isogenic 293FT cells (CRBN-WT or CRBN−/−) expressing HA-tagged FKBP* were treated with the indicated dose of dFKBP13 for 4 hours.
(§3) 293FT cells (CRBN-WT) expressing FKBP* were pretreated with 1 uM Carfilzomib (proteasome inhibitor), 0.5 uM MLN4924 (neddylation inhibitor), and 10 uM Lenalidomide (CRBN binding ligand) for two hours prior to a 4 hour treatment with dFKBP13.
The dTAG is predicated on the selectivity of FKBP* specific ligands over endogenous, wild type FKBP. In 293T cells expressing wild type FKBP12 or FKBP*, dFKBP7 induces targeted degradation only in FKBP* expressing cells. […] 293FT cells (CRBN-WT or CRBN−/−) expressing either HA-tagged FKBP12WT or FKBP* were treated with indicated concentrations of dFKBP7 for 4 hours.
In 293T cells expressing wild type FKBP12 or FKBP*, treatment with dFKBP7 and dFKBP13 induces targeted degradation only in FKBP* expressing cells. Isogenic 293FT cells (CRBN-WT or CRBN−/−) were engineered to expressed either FKBP12WT or FKBP*. Cells were treated with 100 nM of either dFKBP7 or dFKBP13 for 4 hours before lysates were prepared for western immunoblot analysis.
In an effort to define the optimal concentration of dFKB13 heterobifunctional compound to induce degradation of FKBP*, degradation was measured upon treatment with increasing concentrations of dFKBP13. Isogenic 293FT cells (CRBN-WT or CRBN−/−) were engineered to expressed HA-tagged FKBP*. Cells were treated with the indicated dose of dFKBP13 for 4 hours before lysates were prepared for western immunoblot analysis.
as §3, with “were engineered to express FKBP*. Cells” for “expressing FKBP*”, “dFKBP13. Lysates were prepared and western immunoblot analysis performed.” for “dFKBP13.”

[3] = 293FT CRBN-WT or CRBN−/−, 4 hours

T1 sequence (P62942 2-108 F37V limits assumed): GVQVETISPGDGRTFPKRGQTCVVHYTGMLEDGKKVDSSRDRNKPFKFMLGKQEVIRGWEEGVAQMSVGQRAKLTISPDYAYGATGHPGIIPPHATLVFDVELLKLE

SMILES | p-AKT signal ([1]; NIH3T3 N-terminal dTAG-KRAS, 500 nM, indicated time) | degradation of FKBP* [2, 3] | degradation of HA-tagged FKBP* ([2]; 293FT CRBN-WT or CRBN−/−, indicated concentrations, 4 hours) | downstream signaling (pMEK and pAKT) ([1]; NIH3T3 FKBP*-KRASG12V, 1 uM, 24 hours) | time to inhibition of downstream signaling ([1]; NIH3T3 FKBP*-KRASG12V, 1 uM, post treatment) | downstream signaling (pMEK and pAKT) ([1]; NIH3T3 dTAG-KRAS WT, G12C, G12D, G12V, 1 uM, 24 hours) | downstream signaling (pMEK and pAKT) ([1]; NIH3T3 dTAG-KRAS WT, G13D, Q61L, Q61R, 1 uM, 24 hours) | IC50 ([1]; read-out: IC50 of inhibition of downstream signaling, NIH3T3 FKBP*-KRASG12V, 24 hours) | dose dependence of degradation of HA-tagged FKBP* ([2]; 293FT CRBN-WT or CRBN−/−, indicated dose, 4 hours) | mechanism of FKBP* degradation ([2]; 293FT CRBN-WT, 4 hour treatment after inhibitor pretreatment)
CC[C@H](C(=O)N1CCCC[C@H]1C(=O)O[C@H](CCc1ccc(OC)c(OC)c1)c1cccc(OCC(=O)NCCCOCCOCCOCCCNC(=O)COc2cccc3c2C(=O)N(C2CCC(=O)NC2=O)C3=O)c1)c1cc(OC)c(OC)c(OC)c1 (some centres unmarked) [dFKBP7] | downstream decrease in p-AKT signal | CRBN-dependent degradation of FKBP* | CRBN-dependent degradation of FKBP* |  |  |  |  |  |  | 
CC[C@H](C(=O)N1CCCC[C@H]1C(=O)O[C@H](CCc1ccc(OC)c(OC)c1)c1cccc(OCC(=O)NCCCCCCOc2cccc3c2C(=O)N(C2CCC(=O)NC2=O)C3=O)c1)c1cc(OC)c(OC)c(OC)c1 (some centres unmarked) [dFKBP13] |  | CRBN-dependent degradation of FKBP* |  | inhibition of downstream signaling | ≤ 1 h | potently inhibits downstream signaling | potently inhibits downstream signaling | > 100 nM | dose- and CRBN-dependent degradation | CRBN- and proteasome-dependent degradation
